These are literature values, as cited in patent US12599131B2, “Disinfectant composition” (KAO CORPORATION, priority 2020, dated 2026).

For this series the following is noted: 0.1 mol/L in water, Handbook of Chemistry or Chemicalize.
As to `CCCCCCCCC(CCCCCC)C(=O)O` (stereo not drawn) [2-hexyldecanoic acid], the “pKa (25° C.)” value is listed as 5.12.

On to `O=CO` [formic acid], for which the “pKa (25° C.)” value is reported as 3.54.

On to `CCCCCCCCCC(=O)O` [capric acid], for which the “pKa (25° C.)” value is recorded as 4.95.

On to `CCCCCC(=O)O` [caproic acid], for which the “pKa (25° C.)” value is reported as 4.6.

Take `O=C(O)CCCCC(=O)O` [adipic acid]: the “pKa (25° C.)” value was 4.3.

As for `CCCCCCCCC(CCCCCCCC)C(=O)O` [2-octyldecanoic acid], the “pKa (25° C.)” value is 4.98.
